Patent US9573966B2, “Anti-cancer activity of novel bicyclic heterocycles” (Katholieke Universiteit Leuven, K.U.Leuven R&D, priority 2010, dated 2017)
pIC50: −log10 of the molar value.

What was measured:
hu EOL-1 leukemia = settings: Example 222 p.o. once daily, cyclophosphamide once i.p.
Procedure: The test compound (Example 222) was dissolved in DMSO (5% final concentration) and further solubilised in 0.5% Tween 80 in 1% methylcellulose. The resulting suspension was warmed for 10 minutes to 37° C. in an ultrasound water bath to obtain a homogeneous formulation for oral administration. At day 0, 24 male NSG mice received a s.c. inoculum of 10^7 EOL-1 cells taken from in vitro culture and mixed with 50% matrigel. At day 10 tumours were palpable, mice were randomized into three treatment groups and therapy initiated. The test compound (Example 222) and the vehicle were administered orally (p.o.) once daily until the end of the experiment. Cyclophosphamide was administered only once intraperitoneally (i.p.).

HSB-2 cells = assay: Inhibition of HSB-2 leukemic cell line proliferation (WST-1); type: cell-based, human; settings: cytotoxicity on HSB-2 cells, two days incubation, WST-1 read-out
Procedure, shortened: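 HSB-2 human ALL cells, 50000/well in RPMI-1640 + 10% FCS, exposed to compounds 2 days at 37 °C, then WST-1 2 h, OD 450 nm. Proliferation scaled between untreated (max) and Triton X100 (min) controls; IC50 from ≥4-point curves, each point mean of ≥2 experiments.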

HL-60 cells = assay: Inhibition of HL-60 leukemic cell line proliferation (WST-1); type: cell-based, human; settings: cytotoxicity on HL-60 cells, two days incubation, WST-1 read-out
Procedure: HL-60 cell line, a human promyelocytic leukemia (ATCC; CCL-240) cell line, was grown in RPMI-1640 medium (Lonza, Belgium) supplemented with 10% fetal calf serum (Hyclone, US) and antibiotics. Exponential growing phase cells were seed in flat bottom 96-well microplates (TTP, Switzerland) at 50000 cells per well in 220 μl of medium with compounds (in different concentrations) and incubated for two days at 37° C., 5% CO2. After incubation, 100 μl of supernatant were removed and 10 μl of WST-1 (Roche, Switzerland) were added. After 2 hour incubation at 37° C., 5% CO2, optical densities were measured at 450 nm. Proliferation is calculated with respect of control points (no compound and treatment with Triton X100 to have maximum and minimum proliferation data). The IC50 was determined from a graph with at least four points, each derived from the mean of at least 2 experiments. […] The results are shown in Table 2 for a number of compounds.

Row | SMILES | pIC50 (HSB-2 cells; Homo sapiens, HSB2, 48 h) | pIC50 (HL-60 cells; Homo sapiens, 48 h) | also measured
1 | O=P1(N(CCCl)CCCl)NCCCO1 (stereo not shown) [Cyclophosphamide, reference compound] | – | – | body weight loss (hu EOL-1 leukemia; EOL-1 xenograft in NSG mice): 6%; tolerability (hu EOL-1 leukemia; EOL-1 xenograft in NSG mice): well tolerated; effect on tumour growth (tumour volume) relative to vehicle (hu EOL-1 leukemia; s.c. EOL-1 tumours in NSG mice, therapy from day 10 to day 21): highly significant (p<0.05) inhibition of tumour growth
2 | Nc1nc(N2CCN(C(=O)COc3cccc([N+](=O)[O-])c3)CC2)c2nc(-c3ccc(F)cc3)oc2n1 [Example 193, 5-amino-2-(4-fluorophenyl)-7-(4-[2-(3-nitrophenoxy)acetyl]-piperazin-1-yl)-oxazolo[5,4-d]pyrimidine] | < 5.00 | < 5.00 | –
3 | Nc1nc(N2CCN(C(=O)COc3ccc(F)cc3)CC2)c2nc(-c3ccco3)sc2n1 [Example 209, 1-(4-(5-amino-2-(furan-2-yl)thiazolo[5,4-d]pyrimidin-7-yl)piperazin-1-yl)-2-(4-fluorophenoxy)ethanone] | 6.29 | 6.24 | –
4 | Nc1nc(N2CCN(C(=O)Nc3ccc(Br)cc3)CC2)c2nc(-c3ccc(F)cc3)sc2n1 [Example 218, 4-(5-amino-2-(4-fluorophenyl)thiazolo[5,4-d]pyrimidin-7-yl)-N-(4-bromophenyl)piperazine-1-carboxamide] | 5.15 | 5.13 | –
5 | COc1ccc(-c2nc3c(N4CCN(C(=O)COc5ccc(Cl)cc5)CC4)nc(N)nc3[nH]2)cc1OC [Example 390, 1-(4-(2-amino-8-(3,4-dimethoxyphenyl)-9H-purin-6-yl)piperazin-1-yl)-2-(4-chlorophenoxy)ethanone] | 6.35 | < 5.00 | –
6 | Nc1nc(N2CCN(C(=O)COc3ccc(Cl)cc3)CC2)c2nc(C3(c4ccc(Cl)cc4)CC3)sc2n1 [Example 117, 5-amino-7-[4-(4-chlorophenoxyacetyl)piperazin-1-yl]-2-(1-(4-chlorophenyl)cyclopropyl)thiazolo[5,4-d]pyrimidine] | 5.20 | < 5.00 | –
7 | COc1ccc(OCC(=O)N2CCN(c3nc(N)nc4sc(-c5ccccc5)cc34)CC2)cc1 [Example 369, 1-(4-(2-amino-6-phenylthieno[2,3-d]pyrimidin-4-yl)piperazin-1-yl)-2-(4-methoxyphenoxy)ethanone] | 5.23 | 5.22 | –
8 | Nc1nc(N2CCN(C(=O)COc3ccc(Cl)cc3)CC2)c2cc(-c3ccccc3)sc2n1 [Example 329, 1-(4-(2-amino-6-phenylthieno[2,3-d]pyrimidin-4-yl)piperazin-1-yl)-2-(4-chlorophenoxy)ethanone] | 4.86 | < 5.00 | –
9 | Nc1nc(N2CCN(C(=O)CCc3ccccc3)CC2)c2cc(-c3ccc(F)cc3)sc2n1 [Example 343, 1-(4-(2-amino-6-(4-fluorophenyl)thieno[2,3-d]pyrimidin-4-yl)piperazin-1-yl)-3-phenylpropan-1-one] | < 5.00 | < 5.00 | –
10 | Nc1nc(N2CCN(C(=O)COc3ccc(Cl)cc3)CC2)c2nc(-c3ccc(Br)cc3)[nH]c2n1 [Example 391, 1-(4-(2-amino-8-(4-bromophenyl)-9H-purin-6-yl)piperazin-1-yl)-2-(4-chlorophenoxy)ethanone] | 5.67 | 5.44 | –
11 | Nc1nc(N2CCCN(C(=O)COc3ccc(Cl)cc3)CC2)c2nc(-c3ccc(F)cc3)[nH]c2n1 [Example 421, 1-(4-(2-amino-8-(4-fluorophenyl)-9H-purin-6-yl)-1,4-diazepan-1-yl)-2-(4-chlorophenoxy)ethanone] | < 5.00 | < 5.00 | –
12 | Nc1nc(N2CCN(C(=O)COc3ccccc3)CC2)c2nc(-c3ccc(F)cc3)[nH]c2n1 [Example 401, 1-(4-(2-amino-8-(4-fluorophenyl)-9H-purin-6-yl)piperazin-1-yl)-2-phenoxyethanone] | < 5.00 | < 5.00 | –
13 | CCC(c1ccc(F)cc1)c1nc2c(N3CCN(C(=O)COc4ccc(Cl)cc4)CC3)nc(N)nc2s1 (stereo not shown) [Example 150, 5-amino-2-[1-(4-fluorophenyl)propyl]-7-(4-[2-(4-chlorophenoxy)acetyl]piperazin-1-yl)thiazolo[5,4-d]pyrimidine] | < 5.00 | < 5.00 | –
14 | Cc1nc2c(N3CCN(C(=O)COc4ccc(Cl)cc4)CC3)nc(N)nc2[nH]1 [Example 400, 1-(4-(2-amino-8-methyl-9H-purin-6-yl)piperazin-1-yl)-2-(4-chlorophenoxy)ethanone] | 5.69 | 5.53 | –
15 | COc1ccc(OCC(=O)N2CCN(c3nc(N)nc4sc(-c5ccccc5)nc34)CC2)cc1 [Example 208, 1-(4-(5-amino-2-phenylthiazolo[5,4-d]pyrimidin-7-yl)piperazin-1-yl)-2-(4-methoxyphenoxy)ethanone] | 7.22 | 7.15 | –
16 | N#Cc1ccc(NC(=O)N2CCN(c3nc(N)nc4sc(Cc5ccc(F)cc5)nc34)CC2)cc1 [Example 232, 4-(5-amino-2-(4-fluorobenzyl)thiazolo[5,4-d]pyrimidin-7-yl)-N-(4-cyanophenyl)piperazine-1-carboxamide] | 5.16 | 5.00 | –
17 | COCc1nc2c(N3CCN(C(=O)COc4ccc(Cl)cc4)CC3)nc(N)nc2o1 [Example 186, 5-amino-7-[4-(4-chlorophenoxyacetyl)piperazin-1-yl]-2-methoxylmethyloxazolo[5,4-d]pyrimidine] | < 5.00 | < 5.00 | –
18 | Nc1nc(N2CCN(C(=O)COc3ccc(Cl)cc3)CC2)c2nc(-c3ccc[n+]([O-])c3)sc2n1 [Example 121b, 5-amino-7-[4-(4-chlorophenoxyacetyl)piperazin-1-yl]-2-(N-oxopyridine-3-yl)thiazolo[5,4-d]pyrimidine] | – | – | pIC50 (HSB-2 cells): 5.21; pIC50 (HL-60 cells): 5.31
19 | Nc1nc(N2CCN(CC(=O)Nc3cccnc3)CC2)c2nc(-c3ccc(F)cc3)[nH]c2n1 [Example 412] | – | – | pIC50 (HSB-2 cells): < 5.00; pIC50 (HL-60 cells): < 5.00
20 | Nc1nc(N2CCN(C(=O)COc3ccccc3)CC2)c2nc(CCc3ccc(F)cc3)sc2n1 [Example 134, 5-amino-2-[2-(4-fluorophenyl)ethyl]-7-(4-[2-phenoxyacetyl]piperazin-1-yl)-thiazolo[5,4-d]pyrimidine] | < 5.00 | < 5.00 | –
21 | CSc1nc2c(N3CCN(C(=O)COc4ccc(Cl)cc4)CC3)nc(N)nc2[nH]1 [Example 424, 1-(4-(2-amino-8-(methylthio)-9H-purin-6-yl)piperazin-1-yl)-2-(4-chlorophenoxy)ethanone] | 5.34 | 8.00 | –
22 | Cc1cccc(NC(=O)N2CCN(c3nc(N)nc4sc(-c5ccccc5)cc34)CC2)c1 [Example 330, 4-(2-amino-6-phenylthieno[2,3-d]pyrimidin-4-yl)-N-m-tolylpiperazine-1-carboxamide] | 5.12 | < 5.00 | –
23 | Nc1nc(N2CCN(C(=O)COc3ccc(Cl)cc3)CC2)c2nc(CCc3ccccc3)oc2n1 [Example 189, 5-amino-2-(2-phenylethyl)-7-[4-(4-chlorophenoxyacetyl)piperazin-1-yl]oxazolo[5,4-d]pyrimidine] | < 5.00 | < 5.00 | –
24 | COc1ccccc1NC(=O)N1CCN(c2nc(N)nc3sc(-c4ccc(F)cc4)nc23)CC1 [Example 219, 4-(5-amino-2-(4-fluorophenyl)thiazolo[5,4-d]pyrimidin-7-yl)-N-(2-methoxyphenyl)piperazine-1-carboxamide] | 5.23 | 5.21 | –
25 | Nc1nc(N2CCN(C(=O)CCc3ccc(F)cc3)CC2)c2nc(-c3ccc(F)cc3)sc2n1 [Example 236, 1-(4-(5-amino-2-(4-fluorophenyl)thiazolo[5,4-d]pyrimidin-7-yl)piperazin-1-yl)-3-(4-fluorophenyl)propan-1-one] | 5.25 | 5.09 | –
26 | C[S+]([O-])c1nc2c(N3CCN(C(=O)COc4ccc(Cl)cc4)CC3)nc(N)nc2s1 (stereo not shown) [Example 126, 5-amino-7-[4-(4-chlorophenoxyacetyl)piperazin-1-yl]-2-methylsulfinyl-thiazolo[5,4-d]pyrimidine] | 5.26 | 5.42 | –
27 | Nc1nc(N2CCN(C(=O)COc3ccc(Cl)cc3)CC2)c2ccsc2n1 [Example 351, 1-(4-(2-aminothieno[2,3-d]pyrimidin-4-yl)piperazin-1-yl)-2-(4-chlorophenoxy)ethanone] | 5.77 | 5.29 | –
